Reference: patent US11970708B2, “Gene therapy vector with minimizing recombination, recombinant retrovirus comprising the vector, and pharmaceutical composition for preventing or treating cancer comprising the recombinant retrovirus” (ARTICURE INC., priority 2020, dated 2024)

Tests used:
U87MG cells = test: Western blotting of thymidine kinase (TK) and yeast cytosine deaminase (yCD) protein in infected cells; format: cell-based, human
Method: After 3 days of initial infection, p1(passage 1)˜p10 cells were harvested and resuspended in 100 ? of T-PER tissue extraction agent (PIERCE, 78510)+1× proteinase inhibitor. Thereafter, the cells were broken by freezing-thawing three times, and the cytoplasmic supernatant was recovered by centrifugation at 13,000 rpm for 10 minutes. After quantifying the protein amount using BCA, 20 μg of cell lysate was taken and mixed with SDS sample loading dye to 1%. After reacting for 5 minutes in a 100° C. heat block, the reaction mixture was moved to ice and reacted for 2 minutes. Then, the reactant was loaded on 10% (TK) or 13.5% (yCD) SDS-PAGE gel, followed by electrophoresis. Upon completion of the electrophoresis, the protein was transferred to a NC (nitrocellulose) membrane at 90 V for 2 hours, and then put into a blocking solution (5% skim milk in 1X TBS-T), followed by reaction at room temperature for 1 hour. […] Then, the membrane was washed 4 times with 1× TBS-T at room temperature for 10 minutes, reacted in an ECL (enhanced chemiluminescence, Bio-rad Cat No. 170-5062) solution, and then analyzed in a chemiluminescence imaging system (ChemiDoc, Biorad CA). […]

U-87MG cells [1] = test: Cell death of virus-infected cells upon prodrug (GCV, 5-FC) treatment, optical microscope; parameters: species or system human; conditions: GaLV env-based vectors; prodrugs GCV 30 μg/ and 1 mM 5-FC; FIG. 12
Method: Specifically, the spRRVe-TK/sRRVgp-sEF1α-hopt-yCD virus was co-transfected into the 293T cell line using PLUS reagent (Invitrogen) and lipofectamine (Invitrogen). After 2 days, the supernatant of the virus was recovered, and U-87MG cells passaged in a 6-well plate at the density of 1.5×10^5 cells/well the previous day were infected with the virus and polybran at a concentration of 8 μg/ ? for 8 hours. Five days after infection (postinfection 5d), the cell supernatant was taken and re-infected to U-87MG cells passaged in a 6-well plate at the density of 1.5×10^5 cells/well the previous day (p1), and then sequentially infected up to p4 in the same way. Cells at each stage of infection were treated with trypsin-EDTA to make single cells, and passaged in a 12-well plate at the density of 1.5×10^5 cells/well, and from the next day after the passage, 30 μg/ ? of GCV and 1 mM 5-FC were treated for […], respectively, to confirm cell death.
Specifically, the virus containing spRRVe-F4-hopt-yCD/sRRVgp-TK, spRRVe-F4-hopt-yCD/sRRVgp-F1-TK, spRRVe-F4-hopt-yCD/sRRVgp-F2-TK, spRRVe-F4-hopt-yCD/sRRVgp-F3-TK and spRRVe-F4-hopt-yCD/sRRVgp-F4-TK was co-transfected into the 293T cell line using PLUS reagent (Invitrogen) and lipofectamine (Invitrogen). […]

U-87MG cells [2] = test: as above; parameters: species or system human; conditions: MuLV env-based vectors, FIG. 16
[3] = test system: brain tumor cell line U87MG; test: Recombination type analysis by genomic DNA PCR after serial virus infection (passages); format: cell-based, human; conditions: spRRVe-yCD/sRRVgp-TK virus
Method: After 3 days of initial infection, the cultured supernatant was taken and re-infected to new U87MG, and the infected U87MG cell line was recovered and genomic DNA was isolated.
The replicating-retrovirus vector for gene therapy is highly likely to cause recombination because the size of genomic RNA is increased by the introduced foreign gene and non-homologous sequences are added. Therefore, in order to construct an efficient and stable replicating-retrovirus vector for gene therapy, it is very important to confirm the presence and degree of recombination at the development stage.
Specifically, polymerase chain reaction was performed using the primers listed in Table 1 below capable of specifically amplifying the env vector. […] 100 ng of genomic DNA, 1X reaction buffer, 0.25 mM dNTP, 0.2 pmol forward primer, 0.2 pmol reverse primer, and 0.2 unit Taq polymerase were added to a PCR reaction tube, and sterilized distilled water was added to make the final volume of 20 ? . Then, After PCR was performed under the conditions shown in Table 1 below, the amplified DNA was loaded on a 1% agarose gel to confirm the PCR amplification product, thereby confirming the infectivity of the virus and whether the recombination occurred. […]

spRRVe-TK: GaLV env vector, 646 bp MCMV promoter, TK gene (SEQ. ID. NO: 27)
thymidine kinase (TK) protein expression (U87MG cells; GaLV env-based vectors with sRRVgp-sEF1α-hopt-yCD, 0.1 MOI, p1-p10, FIG. 10): continuously expressed
cell death upon prodrug treatment (U-87MG cells [1]): cell death is induced

sRRVe-TK: MuLV env vector, 646 bp MCMV promoter, TK gene (SEQ. ID. NO: 33)
thymidine kinase (TK) protein expression (U87MG cells; MuLV env-based vectors, FIG. 15): continuously expressed
cell death upon prodrug treatment (U-87MG cells [2]): cell death is induced

spRRVe-yCD: GaLV env vector with full-length MCMV promoter and yCD gene (SEQ. ID. NO: 25)
virus proliferation and infection (PCR products detected) ([3]; day 3 of initial infection and passages 1 to 3): virus proliferation and infection progressed
passage from which PCR products smaller than the expected amplification product were detected (recombination) ([3]; full-length MCMV promoter, 2E7 gc, GaLV 1624F/MFGSacIR primers, up to passage 3): 2 passage
